Data set [1] can be described thus: Pharmacokinetic studies of compounds in mice. The data set is classed as in vivo. The conditions noted are these: male mice, intragastric administration 10 mg/kg, plasma. The procedure: Activity Assay Example 3: Pharmacokinetic Studies of Compounds in Mice
In this test, 3 male mice were selected and divided into 1 group, 3 mice/group. All animals were fasted overnight before administration.
The intragastric administration dose was 10 mg/kg, and the administration volume was 10 mL/kg.
2.2 Preparation of Drug Solution
According to the animal body weight combined with the administration dose, the amount of the required drug solution was calculated. An appropriate amount of the test substance was weighed, added with 5% of the final volume of ethanol for dissolution, then added with 5% of the final volume of SolutolHS15, and finally added with PBS to the final volume, and mixed by vortex and fully dissolved to obtain a solution for intragastric administration (1 mg/mL). All solutions were prepared for immediate use.
2.3 Method of Administration
Before administration, the drug solution was placed on a magnetic stirrer in the animal laboratory and stirred for at least 10 min. During the administration process, vortex was continued to ensure uniformity of the drug solution. The theoretical volume of gavage administration was 10 mL/kg, which was administered with a syringe equipped with a gavage needle.
Before administration, the animals were weighed and the body weight of the animals involved in the experiment was recorded, and the administration volume of each animal was calculated according to the body weight. After administration, animals were promptly transferred back to the experimental cages to collect samples.
2.4 Observation of Animal Status
After administration, whether animals had abnormal reactions was observed immediately. If there were no abnormal reactions, animals were observed twice a day during the experiment. If abnormal reactions were found, they should be recorded in time, and the number of observations should be increased until the animals returned to normal or to the end of the experiment.
2.5 Sample Collection and Preservation
All experimental animals were fasted overnight before administration, and blood was collected at corresponding time points into blood collection tubes containing heparin sodium anticoagulant. After the whole blood was collected, the blood collection tube was gently shaken and placed on ice immediately, and then centrifuged (4° C., 4000 rpm, 10 min) to collect supernatant plasma samples, which were stored in a refrigerator at −80° C. before analysis.
2.6 Plasma Sample Processing and Analysis
The collected plasma samples were handed over to the Pharmacokinetic department for sample extraction, and the test substances in the plasma were extracted by protein precipitation method using organic reagents containing internal standards (acetonitrile:plasma=4:1, v/v). The extracted processed samples were submitted for quantitative concentration analysis by LC-MS/MS. According to the plasma concentration of each animal obtained by the analysis, software Kinetica (version 5.0) was used to calculate the main pharmacokinetic parameter eAUC30-120 according to the non-compartment model to evaluate the exposure amount; the test results are shown in Table 2: […]

The target of another data set is T1, AR (Homo sapiens, UniProt P10275, T878A).
T1 sequence (P10275 1-920 T878A): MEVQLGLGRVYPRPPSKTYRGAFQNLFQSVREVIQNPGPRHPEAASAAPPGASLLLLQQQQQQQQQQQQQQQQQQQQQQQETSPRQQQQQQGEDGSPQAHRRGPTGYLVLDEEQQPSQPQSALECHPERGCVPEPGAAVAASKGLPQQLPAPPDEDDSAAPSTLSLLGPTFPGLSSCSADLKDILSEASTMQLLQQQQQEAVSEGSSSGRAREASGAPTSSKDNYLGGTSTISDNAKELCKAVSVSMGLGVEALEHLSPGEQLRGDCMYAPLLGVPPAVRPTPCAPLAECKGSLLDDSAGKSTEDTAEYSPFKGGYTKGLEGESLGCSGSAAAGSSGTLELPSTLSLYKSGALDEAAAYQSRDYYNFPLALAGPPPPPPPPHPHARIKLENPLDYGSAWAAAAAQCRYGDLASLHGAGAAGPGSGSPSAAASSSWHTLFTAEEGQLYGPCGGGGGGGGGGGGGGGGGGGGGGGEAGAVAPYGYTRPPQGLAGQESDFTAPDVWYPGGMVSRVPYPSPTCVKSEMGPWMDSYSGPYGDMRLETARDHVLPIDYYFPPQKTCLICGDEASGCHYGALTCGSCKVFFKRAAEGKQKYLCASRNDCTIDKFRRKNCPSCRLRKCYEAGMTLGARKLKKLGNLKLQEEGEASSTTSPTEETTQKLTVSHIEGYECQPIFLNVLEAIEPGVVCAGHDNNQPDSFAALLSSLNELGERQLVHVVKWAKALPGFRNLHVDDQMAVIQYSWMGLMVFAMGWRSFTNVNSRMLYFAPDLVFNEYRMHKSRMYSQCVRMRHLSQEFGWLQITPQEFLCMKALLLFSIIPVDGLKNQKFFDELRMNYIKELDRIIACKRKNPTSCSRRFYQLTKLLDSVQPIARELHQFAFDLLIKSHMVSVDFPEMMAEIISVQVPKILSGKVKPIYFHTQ
The experiment in a line: Effects of compounds on AR expression in LNCaP cells (ELISA, DC50). The data set is classed as cell-based. More on the design: Measurement of the Effects of Drugs on the Expression of AR in Cells by ELISA Method; endogenous in cells; host or cells: LNCaP. Conditions: 24 hours of drug treatment, AR by ELISA. In a few lines:
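LNCaP cells at about 15,000/well were treated for 24 h with compound at 0.0001–2 μmol/L final. AR in cell lysates was measured by ELISA (OD450). Inhibition was relative to DMSO control after blank subtraction, and DC50 was calculated from it.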

Consider `Cc1ncsc1-c1ccc(CNC(=O)[C@@H]2C[C@@H](O)CN2C(=O)[C@@H](NC(=O)COCCCCOc2ccc(-c3ncc(N4C(=S)N(c5ccc(C#N)c(C(F)(F)F)c5F)C(=O)C4(C)C)cc3C(F)(F)F)cc2)C(C)(C)C)cc1` [Compound A62], for which, in data set [1], the “eAUC0.5-2 h” value worked out at 498 ± 124 ng·h/mL. Also, on AR, the DC50 was 80 nM.

For the molecule `Cc1ncsc1-c1ccc(CNC(=O)[C@@H]2C[C@@H](O)CN2C(=O)[C@@H](NC(=O)COCCOc2ccc(-c3ccc(N4C(=S)N(c5ccc(C#N)c(C(F)(F)F)c5F)C(=O)C4(C)C)cn3)cc2)C(C)(C)C)cc1` [Compound A71], the “eAUC0.5-2 h” value in data set [1] was found to be 287 ± 135 ng·h/mL. In addition, the DC50 at AR stood at 62.1 nM. The matching figures for `Cc1ncsc1-c1ccc(CNC(=O)[C@@H]2C[C@@H](O)CN2C(=O)[C@@H](N(C)C(=O)COCCCCOc2ccc(-c3ccc(N4C(=S)N(c5ccc(C#N)c(C(F)(F)F)c5F)C(=O)C4(C)C)cn3)cc2)C(C)(C)C)cc1` [Compound A66]: 525 ± 106 ng·h/mL and 213 nM. For the molecule `Cc1ncsc1-c1ccc([C@H](C)NC(=O)[C@@H]2C[C@@H](O)CN2C(=O)[C@@H](NC(=O)COCCCCOc2ccc(-c3ccc(N4C(=S)N(c5ccc(C#N)c(C(F)(F)F)c5F)C(=O)C4(C)C)cn3)cn2)C(C)(C)C)cc1` [Compound A126], the “eAUC0.5-2 h” value in data set [1] is 1110 ± 158 ng·h/mL. At AR, this molecule returned a DC50 of 55 nM.

`Cc1ncsc1-c1ccc(CNC(=O)[C@@H]2C[C@@H](O)CN2C(=O)[C@@H](NC(=O)COCCCCCOc2ccc(-c3ncc(N4C(=S)N(c5ccc(C#N)c(C(F)(F)F)c5F)C(=O)C4(C)C)cc3F)cc2F)C(C)(C)C)cc1` [Compound A89]: the “eAUC0.5-2 h” value in data set [1] was found to be 501 ± 103.57 ng·h/mL. Moreover, the DC50 on AR stood at 72 nM. For `Cc1ncsc1-c1ccc([C@H](C)NC(=O)[C@@H]2C[C@@H](O)CN2C(=O)[C@@H](NC(=O)COCCCCOc2c(F)cc(-c3ncc(N4C(=S)N(c5ccc(C#N)c(C(F)(F)F)c5F)C(=O)C4(C)C)cc3F)cc2F)C(C)(C)C)cc1` [Compound A124], in data set [1], the “eAUC0.5-2 h” value was determined as 2776 ± 292 ng·h/mL. The DC50 on AR is 188 nM. The matching figures for `Cc1ncsc1-c1ccc(CNC(=O)[C@@H]2C[C@@H](O)CN2C(=O)[C@@H](NC(=O)COCCOCCOc2ccc(-c3ncc(N4C(=S)N(c5ccc(C#N)c(C(F)(F)F)c5F)C(=O)C4(C)C)cc3F)cc2F)C(C)(C)C)cc1` [Compound A90]: 96 ± 28.51 ng·h/mL and 36.4 nM. Taken in the same sequence, the figures for `Cc1ncsc1-c1ccc2[nH]c([C@@H]3C[C@@H](O)CN3C(=O)[C@@H](NC(=O)COCCCCOc3ccc(-c4ncc(N5C(=S)N(c6ccc(C#N)c(C(F)(F)F)c6F)C(=O)C5(C)C)cc4F)cc3F)C(C)(C)C)nc2c1` [Compound A138] were 471 ± 288 ng·h/mL and 1500 nM.

Consider `Cc1ncsc1-c1ccc(CNC(=O)[C@@H]2C[C@@H](O)CN2C(=O)[C@@H](NC(=O)c2ccc(CNC(=O)CCCc3ccc(N4C(=S)N(c5ccc(C#N)c(C(F)(F)F)c5F)C(=O)C4(C)C)cn3)cc2)C(C)(C)C)cc1` [Compound A134], for which, in data set [1], the “eAUC0.5-2 h” value is 29 ± 22 ng·h/mL. The DC50 at AR amounted to 1130 nM. `Cc1ncsc1-c1ccc([C@H](C)NC(=O)[C@@H]2C[C@@H](O)CN2C(=O)[C@@H](NC(=O)COCCC(F)COc2c(F)cc(-c3ncc(N4C(=S)N(c5ccc(C#N)c(C(F)(F)F)c5F)C(=O)C4(C)C)cc3F)cc2F)C(C)(C)C)cc1` (stereo partly drawn) [Compound A149] showed a DC50 at AR of 111 nM. Same read-out and setting: with `Cc1ncsc1-c1ccc(CNC(=O)[C@@H]2C[C@@H](O)CN2C(=O)[C@@H](NC(=O)COCCOc2c(F)cc(-c3ncc(N4C(=S)N(c5ccc(C#N)c(C(F)(F)F)c5F)C(=O)C4(C)C)cc3F)cc2F)C(C)(C)C)cc1` [Compound A87] the figure was 54.6 nM; with `CC(C)(C)[C@H](NC(=O)COCCCCOc1ccc(-c2ccc(N3C(=S)N(c4ccc(C#N)c(C(F)(F)F)c4F)C(=O)C3(C)C)cn2)cn1)C(=O)N1C[C@H](O)C[C@H]1C(=O)NCc1ccc(C(N)=O)cc1` [Compound A127], 89.3 nM.

The values above are taken from US12606552B2, “Bifunctional compound, preparation method therefor, and use thereof” (SUZHOU KINTOR PHARMACEUTICALS, INC., priority 2020, dated 2026).
